Test results as given in US6737383B1, “Herbicidal oxadiazolidines” (priority 1999, dated 2004).

Experiments:
duck salad = assay: Test B flood test duck salad; assay type: in vivo, Heteranthera limosa; conditions: for Plant response rating, Ducksalad (0 to 10 scale, 0 is no effect, 10 is complete control): Rate 62 g/ha; for Plant response rating, Ducksalad (0 to 10 scale, 0 is no effect, 10 is complete control) / Ducksalad plant response rating (0 to 10 scale, 0 is no effect, 10 is complete control): visual evaluation after twelve to sixteen days; for Ducksalad plant response rating (0 to 10 scale, 0 is no effect, 10 is complete control): Rate 125 g/ha, under heading Pre-emergence
Method in brief: (§1)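 Flood test on plants grown to the 2-leaf stage; treated plants kept in greenhouse twelve to sixteen days, then visually rated against controls on a 0 (no effect) to 10 (complete control) scale.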

bamyardgrass = assay: Test B flood test barnyardgrass; assay type: in vivo, Echinochloa crus-galli; conditions: for Plant response rating, Barnyardgrass (0 to 10 scale, 0 is no effect, 10 is complete control): Rate 62 g/ha; for Plant response rating, Barnyardgrass (0 to 10 scale, 0 is no effect, 10 is complete control) / Barnyardgrass plant response rating (0 to 10 scale, 0 is no effect, 10 is complete control): visual evaluation after twelve to sixteen days; for Barnyardgrass plant response rating (0 to 10 scale, 0 is no effect, 10 is complete control): Rate 125 g/ha, under heading Pre-emergence
Method in brief: as §1

crabgrass = assay: Test B pre/postemergence crabgrass; assay type: in vivo, Digitaria sanguinalis
Method in brief: (§2)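 Herbicidal effect was estimated by eye on a ten-point control scale after plants spent twelve to sixteen days in a greenhouse following soil or foliar treatment. Foliar sprays targeted plants at one to four leaves; all doses were formulated in a non-phytotoxic solvent with surfactant.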

purple nutsedge = assay: Test B pre/postemergence purple nutsedge; assay type: in vivo, Cyperus rotundus
Method in brief: as §2

[1] = flood test species, Pre-emergence
[2] = Rate 250 g/ha, Pre-emergence (flood test species), scale 0 to 10, 0 is no effect, 10 is complete control
[3] = Rate 500 g/ha, Pre-emergence, flood test species, scale 0 to 10 (0 no effect, 10 complete control)
[4] = Postemergence, Rate 250 g/ha, scale 0 to 10
[5] = Postemergence, Rate 500 g/ha, scale of 0 to 10 where 0 is no effect and 10 is complete control
[6] = Preemergence, Rate 62 g/ha, scale of 0 to 10 where 0 is no effect and 10 is complete control
[7] = Preemergence, Rate 125 g/ha, scale of 0 to 10 where 0 is no effect and 10 is complete control
[8] = Preemergence, Rate 250 g/ha, scale 0 to 10, 0 is no effect, 10 is complete control
[9] = Preemergence, Rate 500 g/ha, scale 0 to 10, 0 is no effect, 10 is complete control
[10] = Rate 62 g/ha, Postemergence, scale 0 to 10 (0 no effect, 10 complete control)
[11] = Rate 125 g/ha, Postemergence, scale 0 to 10, 0 is no effect, 10 is complete control
[12] = Rate 31 g/ha, Pre-emergence section (flood test species), scale 0 to 10
[13] = Postemergence, Rate 31 g/ha, visual rating, scale 0 to 10 (0 no effect, 10 complete control)
[14] = Rate 500 g/ha, Pre-emergence section of Table B, 0 to 10 scale (0 no effect, 10 complete control)
[15] = Postemergence, Rate 62 g/ha, scale of 0 to 10, 0 is no effect, 10 is complete control
[16] = Postemergence, Rate 125 g/ha, scale 0 to 10, 0 is no effect, 10 is complete control
[17] = Postemergence, Rate 500 g/ha, scale 0 to 10, 0 is no effect, 10 is complete control
[18] = Preemergence, Rate 125 g/ha, scale 0 to 10, 0 is no effect, 10 is complete control
[19] = Preemergence, Rate 500 g/ha, scale of 0 to 10 where 0 is no effect and 10 is complete control
[20] = Rate 250 g/ha, Postemergence, scale of 0 to 10 where 0 is no effect and 10 is complete control

| Structure (SMILES) | Plant response rating, Ducksalad (0 to 10 scale, 0 is no effect, 10 is complete control) (duck salad; [1]) | Ducksalad plant response rating (0 to 10 scale, 0 is no effect, 10 is complete control) (duck salad; flood test species) | Ducksalad plant response rating (duck salad; [2]) | Ducksalad plant response rating (duck salad; [3]) | Plant response rating, Barnyardgrass (0 to 10 scale, 0 is no effect, 10 is complete control) (bamyardgrass; [1]) | Barnyardgrass plant response rating (0 to 10 scale, 0 is no effect, 10 is complete control) (bamyardgrass; flood test species) | Barnyardgrass plant response rating (bamyardgrass; [2]) | Barnyardgrass plant response rating (bamyardgrass; [3]) | Crabgrass plant response rating (crabgrass; [4]) | Plant response rating, Crabgrass (crabgrass; [6]) | Plant response rating, Crabgrass (crabgrass; [7]) | Crabgrass plant response rating (crabgrass; [8]) | Crabgrass plant response rating (crabgrass; [10]) | Crabgrass plant response rating (crabgrass; [11]) | Nutsedge plant response rating (purple nutsedge; [4]) | Plant response rating, Nutsedge (purple nutsedge; [6]) | Plant response rating, Nutsedge (purple nutsedge; [7]) | Nutsedge plant response rating (purple nutsedge; [8]) | Nutsedge plant response rating (purple nutsedge; [10]) | Nutsedge plant response rating (purple nutsedge; [11]) | other results |
| --- | --- | --- | --- | --- | --- | --- | --- | --- | --- | --- | --- | --- | --- | --- | --- | --- | --- | --- | --- | --- | --- |
| COCC(OC)n1c(=O)on(C(=O)N(c2ccc(F)cc2)C(C)C)c1=O (centres unmarked) [Compound 446] | 0 | 0 | 0 | 0 | 0 | 0 | 0 | 0 | 9 | 8 | 8 | 9 | 5 | 9 | 0 | 0 | 0 | 0 | 0 | 0 | Crabgrass plant response rating (crabgrass; [5]): 9; Crabgrass plant response rating (crabgrass; [9]): 9; Nutsedge plant response rating (purple nutsedge; [5]): 0; Nutsedge plant response rating (purple nutsedge; [9]): 0 |
| CC(C)N(C(=O)n1oc(=O)n(CC2=NOCCC2)c1=O)c1ccc(Cl)cc1 [Compound 450] | 0 | 0 | 0 | – | 0 | 0 | 0 | – | 4 | 2 | 7 | 8 | 0 | 2 | 0 | 0 | 0 | 0 | 0 | 0 | Ducksalad plant response rating (duck salad; [12]): 0; Barnyardgrass plant response rating (bamyardgrass; [12]): 0; Crabgrass plant response rating (crabgrass; [13]): 0; Crabgrass plant response rating (crabgrass; Preemergence, Rate 31 g/ha, visual rating, scale 0 to 10 (0 no effect, 10 complete control)): 0; Nutsedge plant response rating (purple nutsedge; [13]): 0 |
| CC(C)N(C(=O)n1oc(=O)n(CCC[Si](C)(C)C)c1=O)c1ccc(F)cc1 [Compound 461] | 0 | 0 | 0 | 0 | 0 | 0 | 0 | 0 | 0 | 0 | 0 | 0 | 0 | 0 | 0 | 0 | 0 | 0 | 0 | 0 | Crabgrass plant response rating (crabgrass; [5]): 2; Crabgrass plant response rating (crabgrass; [9]): 3; Nutsedge plant response rating (purple nutsedge; [9]): 0 |
| CC(C)N(C(=O)n1oc(=O)n(CCCl)c1=O)c1ccc(Cl)cc1 [Compound 474] | 0 | 0 | 0 | 0 | 0 | 0 | 0 | 0 | 6 | 6 | 9 | 9 | 2 | 5 | 0 | 0 | 0 | 0 | 0 | 0 | Crabgrass plant response rating (crabgrass; [5]): 9; Crabgrass plant response rating (crabgrass; [9]): 10; Nutsedge plant response rating (purple nutsedge; [9]): 0 |
| CC(C)N(C(=O)n1oc(=O)n(C(C)C(=O)N(C)C)c1=O)c1ccc(Cl)cc1 (centres unmarked) [Compound 480] | 0 | 0 | 0 | 0 | 0 | 0 | 0 | 0 | 7 | 7 | 8 | 8 | 2 | 6 | 0 | 0 | 0 | 0 | 0 | 0 | Crabgrass plant response rating (crabgrass; [5]): 8; Crabgrass plant response rating (crabgrass; [9]): 10; Nutsedge plant response rating (purple nutsedge; [9]): 0 |
| CC(C)N(C(=O)n1oc(=O)n(CCC2OCCO2)c1=O)c1ccc(Cl)cc1 [Compound 531] | 0 | 0 | 0 | – | 0 | 0 | 0 | – | – | 8 | – | – | – | – | – | 0 | – | – | – | – | Ducksalad plant response rating (duck salad; [14]): 0; Barnyardgrass plant response rating (bamyardgrass; [14]): 0; Crabgrass plant response rating (crabgrass; [15]): 2; Crabgrass plant response rating (crabgrass; [16]): 8; Plant response rating, Crabgrass (crabgrass; [17]): 10; Crabgrass plant response rating (crabgrass; [18]): 10; Crabgrass plant response rating (0 to 10 scale) (crabgrass; Preemergence, Rate 250 g/ha): 10; Crabgrass plant response rating (crabgrass; [19]): 10; Plant response rating, Crabgrass (crabgrass; [20]): 9; Nutsedge plant response rating (purple nutsedge; [15]): 0; Nutsedge plant response rating (purple nutsedge; [16]): 0; Plant response rating, Nutsedge (purple nutsedge; [17]): 3; Nutsedge plant response rating (purple nutsedge; [18]): 0; Nutsedge plant response rating (0 to 10 scale) (purple nutsedge; Preemergence, Rate 250 g/ha): 0; Nutsedge plant response rating (purple nutsedge; [19]): 0; Plant response rating, Nutsedge (purple nutsedge; [20]): 0 |
